PubChem BioAssay (NCI)
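Results reflect a 48-hour exposure of cells in 96-well plates to compound at five concentrations. GI50 marks 50% less growth. Definition used: TGI = concentration required for complete inhibition of growth.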

Legend:
Test in all cases: DTP human tumour cell line panel, 48 h
OVCAR-8 ovarian = system: OVCAR-8 ovarian
UACC-62 melanoma = system: UACC-62 melanoma
HCT-116 colon = system: HCT-116 colon
HL-60(TB) leukemia = system: HL-60(TB) leukemia
CAKI-1 renal = system: CAKI-1 renal
SNB-19 CNS = system: SNB-19 CNS
KM20L2 colon = system: KM20L2 colon
CCRF-CEM leukemia = system: CCRF-CEM leukemia
MALME-3M melanoma = system: MALME-3M melanoma
SF-295 CNS = system: SF-295 CNS

Structure (SMILES)	TGI (OVCAR-8 ovarian) [µM]	TGI (UACC-62 melanoma) [µM]	TGI (HCT-116 colon) [µM]	TGI (HL-60(TB) leukemia) [µM]	TGI (CAKI-1 renal) [µM]	TGI (SNB-19 CNS) [µM]	TGI (KM20L2 colon) [µM]	TGI (CCRF-CEM leukemia) [µM]	TGI (MALME-3M melanoma) [µM]	TGI (SF-295 CNS) [µM]	GI50 (OVCAR-8 ovarian) [µM]	GI50 (HCT-116 colon) [µM]	GI50 (HL-60(TB) leukemia) [µM]	GI50 (CAKI-1 renal) [µM]	GI50 (SNB-19 CNS) [µM]	GI50 (CCRF-CEM leukemia) [µM]	GI50 (MALME-3M melanoma) [µM]	GI50 (SF-295 CNS) [µM]	GI50 (UACC-62 melanoma) [µM]
COc1ccc(C(=O)Cc2cc(OC)ccc2OC)cc1	> 100	> 100	> 100	> 100	> 100	> 100	> 100	> 100	> 100	> 100	–	–	–	–	–	–	–	–	–
CC(C)=CCN(N=O)c1ncnc2nc[nH]c12	> 100	–	> 100	> 100	> 100	> 100	–	> 100	> 100	> 100	–	–	–	–	–	–	–	–	–
COc1ccccc1C1C(C#N)=C(N)OC2=C1C(=O)CCC2 (centres undefined)	> 100	–	> 100	> 100	> 100	> 100	–	> 100	> 100	> 100	> 100	> 100	> 100	> 100	> 100	59.2	> 100	> 100	–
CCCCc1ccc2[n+](c1)C(C(=O)OCC)=PC2 (centres undefined)	> 100	> 100	> 100	> 100	> 100	–	–	> 100	> 100	> 100	–	–	–	–	–	–	–	–	–
O=C1c2ccccc2-c2ccc(NC(=O)C3CCCCC3C(=O)O)cc21 (centres undefined)	> 100	> 100	> 100	> 100	> 100	> 100	–	> 100	> 100	> 100	–	–	–	–	–	–	–	–	–
O=CNc1cccc2c3c([nH]c12)CCCCCC3	> 100	> 100	> 100	> 100	> 100	> 100	> 100	> 100	> 100	> 100	–	–	–	–	–	–	–	–	–
C=C1C(=O)O[C@H]2C1[C@H](OC(=O)/C(C)=C\COC(C)=O)C[C@]1(CO1)[C@@H]1[C@H](O)[C@H]3O[C@@]3(C)[C@@H]12 (some centres undefined)	99.5	30.4	26.5	> 57.7	31.5	> 100	> 82.7	54.2	38	> 100	–	–	–	–	–	–	–	–	–
COC(=O)C(C)N1C(=O)c2ccccc2I1OC(C)=O (centres undefined)	> 100	> 100	–	> 100	> 100	> 100	–	45.5	54	> 100	> 100	–	47.2	> 100	> 100	18.1	16.8	> 100	23
CCOC(=O)C1C(c2cc(OC)c(O)c(OC)c2)c2cc3c(cc2OC1(C)O)OCO3 (centres undefined)	> 100	> 100	> 100	> 100	95.2	> 100	> 100	> 100	> 100	> 100	–	–	–	–	–	–	–	–	–
COc1cc(N=Nc2cccc(S(=O)(=O)O)c2)c(C)cc1N=Nc1ccc(/C=C/c2ccc(N=[N+]([O-])c3ccc(/C=C/c4ccc(N=Nc5cc(C)c(N=Nc6cccc(S(=O)(=O)O)c6)cc5OC)cc4)c(S(=O)(=O)O)c3)cc2S(=O)(=O)O)cc1	> 100	> 100	> 100	> 100	–	> 100	> 100	> 100	> 100	> 100	–	–	–	–	–	–	–	–	–
Cc1cc(NS(=O)(=O)c2ccc(Nc3c4ccccc4nc4c(C(=O)NCCN(C)C)ccc(Cl)c34)cc2)no1	14	10.4	15.5	5.58	–	9.68	24	10.8	–	16.2	–	–	–	–	–	–	–	–	–
